Test systems include 786-0; CAKI-1; COLO 205; HL-60; HT-29; Hs-578T; IGROV-1; K562; MOLT-4; NCI/ADR-RES; PC-3; SF-268; SF-539; SK-MEL-28; SNB-75; UACC-257; UO-31.
Holding throughout (test): NCI-60 cell line screen, 48 h

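Following 48 hours of exposure in 96-well plates, responses at five concentrations were used to interpolate endpoints linearly. GI50 is the concentration that inhibits growth by half.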 The source made the active and inactive calls. Rule as the data show it: active = GI50 up to about 1.1 µM and inactive = higher. A value given as a limit tells only on which side of the number the result lay.

Regarding `CCN(CC)CCNc1ccc([N+](=O)[O-])c2nc3ccc(OC)cc3c(N)c12`, the GI50 with 786-0 is 0.614 µM (active); in the experiment with CAKI-1, 1.89 µM (inactive); in the experiment on COLO 205, 0.4 µM (active); in the experiment with HL-60, 0.0826 µM (active); with HT-29 it was 0.394 µM (active); in the experiment on Hs-578T, 1.27 µM (inactive). For the same molecule, the GI50 is 0.435 µM (active) in the experiment on IGROV-1; 0.238 µM (active) in the experiment on K562; 0.301 µM (active) in the experiment on MOLT-4; 1.24 µM (inactive) in the experiment on NCI/ADR-RES; 1.36 µM (inactive) in the experiment on PC-3; 1.65 µM (inactive) with SF-268. Moreover, the GI50 in the experiment with SF-539 is 1.68 µM (inactive); in the experiment with SK-MEL-28 it was 1.65 µM (inactive); with SNB-75, 1.77 µM (inactive); in the experiment on UACC-257, 1.77 µM (inactive); in the experiment with UO-31, 1.67 µM (inactive).
As for `O=C(Nc1ccc(Nc2ccc3c(c2)C(=O)c2ccccc2C3=O)c2c1C(=O)c1ccccc1C2=O)c1ccccc1`, the GI50 in the experiment with 786-0 is 38.8 µM (inactive); in the experiment on CAKI-1, > 100 µM (inactive); in the experiment with COLO 205 it was 51.6 µM (inactive); with HL-60 it was 17.7 µM (inactive); in the experiment with HT-29, 43.7 µM (inactive); with Hs-578T, 32.4 µM (inactive). For the same molecule, the GI50 with IGROV-1 was 32.3 µM (inactive); with K562, 7 µM (inactive); in the experiment with MOLT-4, 11.3 µM (inactive); in the experiment with NCI/ADR-RES, 22 µM (inactive); with PC-3, 12.1 µM (inactive); in the experiment with SF-268 it was 44.9 µM (inactive). Moreover, the GI50 in the experiment with SF-539 was > 23.7 µM (inactive); in the experiment on SK-MEL-28 it was > 100 µM (inactive); in the experiment on SNB-75 it was 16.6 µM (inactive); with UACC-257, > 100 µM (inactive); in the experiment on UO-31 it was > 100 µM (inactive).
For `O=C(Nc1cccc(C(F)(F)F)c1)O/N=C(/Cl)CCl`, the GI50 in the experiment with 786-0 was 40.5 µM (inactive); with CAKI-1, > 100 µM (inactive); in the experiment on COLO 205, 67.5 µM (inactive); in the experiment on HL-60 it was 16.8 µM (inactive); in the experiment with HT-29, 51.9 µM (inactive); in the experiment on Hs-578T, > 100 µM (inactive). In addition, the GI50 with IGROV-1 was 62.4 µM (inactive); in the experiment with K562, 29.6 µM (inactive); in the experiment on MOLT-4, 28.2 µM (inactive); in the experiment with NCI/ADR-RES, > 100 µM (inactive); with PC-3 it was 96.6 µM (inactive); in the experiment with SF-268, > 100 µM (inactive). The GI50 in the experiment with SF-539 is > 100 µM (inactive); in the experiment on SK-MEL-28 it was 41.5 µM (inactive); with SNB-75, > 100 µM (inactive); with UACC-257, > 100 µM (inactive); in the experiment on UO-31, > 100 µM (inactive).
For the molecule `COc1ccc(C[C@H]2COC(=O)[C@@H]2Cc2ccc(Br)cc2)cc1OC`, the GI50 is 38 µM (inactive) in the experiment on 786-0; 34 µM (inactive) in the experiment on CAKI-1; 21.2 µM (inactive) in the experiment on COLO 205; 20.4 µM (inactive) in the experiment with HL-60; 30.4 µM (inactive) with HT-29; 26.5 µM (inactive) in the experiment on Hs-578T. Moreover, the GI50 in the experiment with IGROV-1 was 16.1 µM (inactive); in the experiment on K562, 11.7 µM (inactive); in the experiment on MOLT-4, 13 µM (inactive); with NCI/ADR-RES, 10.7 µM (inactive); in the experiment with PC-3 it was 15.6 µM (inactive); in the experiment with SF-268 it was 20.1 µM (inactive). Besides, the GI50 in the experiment on SF-539 was 38.2 µM (inactive); in the experiment with SK-MEL-28, 42.2 µM (inactive); in the experiment with SNB-75, 23.3 µM (inactive); with UACC-257, 11.5 µM (inactive); in the experiment on UO-31, 6.18 µM (inactive).
`C=C[C@H]1CN2CC[C@H]1C[C@@H]2[C@@H](O)c1ccnc2ccccc12` [CINCHONINE]: the GI50 in the experiment on 786-0 was > 100 µM (inactive); in the experiment on CAKI-1 it was > 100 µM (inactive); in the experiment on COLO 205, > 100 µM (inactive); with HL-60, > 100 µM (inactive); in the experiment on HT-29 it was 46.8 µM (inactive); in the experiment with Hs-578T, 1.26 µM (inactive). Moreover, the GI50 with IGROV-1 is 19.6 µM (inactive); with K562, 55.2 µM (inactive); with MOLT-4, > 100 µM (inactive); in the experiment with NCI/ADR-RES, > 100 µM (inactive); in the experiment with PC-3, > 100 µM (inactive); with SF-268 it was > 100 µM (inactive). For the same molecule, the GI50 with SF-539 is > 100 µM (inactive); in the experiment on SK-MEL-28, > 100 µM (inactive); in the experiment with SNB-75 it was 22.8 µM (inactive); with UACC-257 it was > 100 µM (inactive); in the experiment with UO-31 it was 52.7 µM (inactive).
For `C/C=C(/C)C(=O)O[C@H](C[C@@H](C)[C@H]1CC(c2ccoc2)OC1=O)[C@@]1(C)C(=O)CCC2O[C@]21C` (stereo partly specified), the GI50 in the experiment with 786-0, in the experiment on CAKI-1, in the experiment on COLO 205, with HL-60, in the experiment on HT-29 and with Hs-578T was > 100 µM (inactive) each time. For the same molecule, the GI50 in the experiment on IGROV-1, with K562, in the experiment with MOLT-4, with NCI/ADR-RES, with PC-3 and with SF-539 was > 100 µM (inactive) in each case. Further, the GI50 in the experiment with SK-MEL-28, in the experiment with SNB-75, in the experiment with UACC-257 and in the experiment with UO-31 was > 100 µM (inactive) each time.
For the molecule `CN(C)CCNS(=O)(=O)N(C)C`, the GI50 with 786-0, in the experiment on CAKI-1, in the experiment with COLO 205, in the experiment on HL-60, in the experiment on HT-29 and in the experiment on Hs-578T was > 100 µM (inactive) each time. The GI50 in the experiment on IGROV-1, with K562, in the experiment with MOLT-4, in the experiment on NCI/ADR-RES, in the experiment with PC-3 and in the experiment with SF-268 was > 100 µM (inactive) throughout. The GI50 with SF-539, in the experiment on SK-MEL-28, in the experiment on SNB-75 and with UACC-257 was > 100 µM (inactive) each time.
With `COc1ccc(S(=O)(=O)N2C(=O)CCC2C(=O)NC(N)=O)cc1` (stereo unspecified), the GI50 with 786-0, in the experiment on CAKI-1, in the experiment with COLO 205, in the experiment on HL-60, in the experiment on HT-29 and in the experiment with Hs-578T was > 100 µM (inactive) each time. Moreover, the GI50 in the experiment with IGROV-1, in the experiment on K562, in the experiment on MOLT-4, in the experiment with NCI/ADR-RES, with PC-3 and in the experiment with SF-539 was > 100 µM (inactive) throughout. For the same molecule, the GI50 in the experiment on SK-MEL-28 was > 100 µM (inactive); in the experiment with SNB-75 it was 0.381 µM (active); in the experiment with UACC-257, > 100 µM (inactive); with UO-31 it was > 100 µM (inactive).
As to `COC1CC(OC2C(C)OC(OC3C(C)OC(OC4C(C)OC(O[C@H]5CC[C@@]6(C)C(=CC[C@]7(O)[C@@H]6C[C@@H](OC(C)=O)[C@@]6(C)[C@]7(O)CC[C@@]6(O)C(C)=O)C5)CC4OC)CC3OC)CC2OC)OC(C)C1O` (stereo partly specified), the GI50 in the experiment on 786-0, with CAKI-1, in the experiment with COLO 205, in the experiment with HL-60, in the experiment on HT-29 and with Hs-578T was > 25 µM (inactive) in each case. The GI50 in the experiment with IGROV-1, in the experiment with K562, with MOLT-4, with NCI/ADR-RES, with PC-3 and in the experiment on SF-268 was > 25 µM (inactive) throughout. Moreover, the GI50 in the experiment on SF-539, in the experiment with SNB-75, in the experiment with UACC-257 and in the experiment with UO-31 was > 25 µM (inactive) in each case.
For `Cc1cc2c(cc1-c1cc3c(cc1C)C(C(C)C)=C(O)C(=O)/C3=C\Nc1cccc3c(N)cccc13)/C(=C/Nc1cccc3c(N)cccc13)C(=O)C(O)=C2C(C)C`, the GI50 with 786-0 is > 100 µM (inactive); in the experiment with CAKI-1, > 100 µM (inactive); with COLO 205, > 100 µM (inactive); in the experiment with HL-60, 33.8 µM (inactive); with HT-29, > 100 µM (inactive); in the experiment with Hs-578T, > 100 µM (inactive). Besides, the GI50 is > 100 µM (inactive) in the experiment with IGROV-1; 54.3 µM (inactive) in the experiment on K562; 37.4 µM (inactive) with MOLT-4; > 100 µM (inactive) in the experiment with NCI/ADR-RES; 79.8 µM (inactive) in the experiment on PC-3; > 100 µM (inactive) in the experiment on SF-268. Also, the GI50 with SK-MEL-28 is > 100 µM (inactive); in the experiment on SNB-75, > 100 µM (inactive); in the experiment with UACC-257, > 100 µM (inactive); in the experiment on UO-31 it was 30.8 µM (inactive).
Turning to `CCOC(=O)C1(N)CC1`, the GI50 with 786-0, with CAKI-1, in the experiment on HL-60, in the experiment on HT-29, in the experiment with Hs-578T and with IGROV-1 was > 100 µM (inactive) throughout. Further, the GI50 was > 100 µM (inactive) in the experiment with K562; > 100 µM (inactive) with MOLT-4; > 100 µM (inactive) in the experiment with NCI/ADR-RES; 71 µM (inactive) in the experiment on PC-3; > 100 µM (inactive) in the experiment on SF-268; > 100 µM (inactive) with SF-539. In addition, the GI50 with SK-MEL-28, with SNB-75, in the experiment with UACC-257 and with UO-31 was > 100 µM (inactive) in each case.
